Experiment [1] addresses T1, pMON8186 encoded petunia EPSP synthase variant (glycine (101) to alanine and glycine (144) to aspartic acid) (Petunia hybrida, UniProt P11043, G173A/G216D).
T1 construct: GGT codon for glycine (144) in the mature petunia EPSP synthase; made in house; host or cells: E. coli SR481
Description: EPSP synthase kinetic constants (appKi glyphosate, appKm PEP). In kind it is biochemical. Here is the method:
The balance of the #215 preculture (~750 μl) was used to inoculate 2 ml of MOPS medium containing 50 μg/ml carbenicillin and was shaken overnight at 37° C. to reach saturation. Plasmid DNA was isolated from an aliquot of the saturated culture using an alkaline lysis procedure. The plasmid was designated pMON8186. An aliquot of the pMON8186 plasmid was used to transform the E. coli host SR481 (described above) and reselected on MOPS medium containing 10 mM glyphosate and 50 μg/ml carbenicillin. A single glyphosate resistant colony of pMON8186 was picked off the selection plate and used to inoculate 3 ml of 2XYT bacterial medium containing 50 μg/ml carbenicillin. The culture was then aerated on rotating wheel at 37° C. until saturated, then it was used to inoculate a larger 500 ml culture. The large culture was grown to saturation by shaking it overnight at 37° C. in a water bath. The bacterial cells were lysed and the extracts were assayed for EPSPS activity.
Specifically, the bacterial cell paste was washed twice with 0.9% saline, suspended in buffer (100 mM Tris-HCl, 5 mM benzamidine HCl) and passed twice through the French Pressure Cell at 1000 psi. The cell extract was separated from the cells by centrifuging at 15,000 x gravity for 10 mins. at 5° C. It was desalted using Sephadex G-50 (Pharmacia, Piscataway, N.J.). The desalted extract was assayed for EPSP synthase activity as follows:
To an assay mix (40 μl) containing shikimate-3-phosphate (2 mM), ^14 C-phosphoenolpyruvate (1 mM, 1.2 mCi/mmol), ammonium molybdate (0.1 mM), potassium fluoride (5 mM) in 50 mM HEPES-KOH, pH 7, was added the extract and incubated at 25° C. for 2 mins. The reaction was quenched by the addition of 50 μl of 50 μl of 90% ethanol/0.1M acetic acid, pH 4.5. […] The radioactivity of the eluent was monitored using a Radiomatic Flo-One Beta Instrument. […] The EPSP synthase activity was determined by measurement of the conversion of ^14 C-PEP to ^14 C-EPSP synthase, both of which are resolved under the above conditions of chromatography. The protein content of the extract was determined by the method of Bradford (Biorad Labs, Calif.). The specific activity of the extract is expressed as nanomoles of EPSP synthase formed/min/mg protein.
Kinetic constants (appKm PEP and appKi glyphosate) were determined for EPSP synthase as described below. Substrate kinetic parameters were determined at pH 7.0 in 50 mM HEPES (N-[2-hydroxyethyl]piperazine-N'-[2-ethanesulfonic acid]) buffer in the presence of 2 mM S3P and varying amounts of ^14 C-PEP (10 μM-400 μM), for 2.0 minutes at 25° C. Reactions were quenched with 100 mM Na Acetate in ethanol, pH 4.5, centrifuged and analyzed for product EPSP formation by HPLC with flow radioactivity detection. […]

Experiment [2] concerns tobacco plants transformed with glyphosate-tolerant petunia EPSP synthase gene (pMON567). The experiment in a line: Relative effect of glyphosate spraying on transformed tobacco. In kind it is in vivo, Nicotiana tobacam CV H425. Details: key: 0 = total kill, 10 = normal unsprayed plant. Particulars: GT, 0 total kill, 10 no effect, best transformant. How it is done: Plasmid pMON530 DNA was digested with BglII and ClaI, to which was added the 330 bp BglII-EcoRI EPSP synthase 5' fragment from pMON536 and purified 1.4 kb EcoRI-ClaI EPSP synthase 3' fragment from pMON9566 and then treated with T4 DNA ligase. Following transformation a plasmid was isolated that carried the intact glycine (101) to alanine variant EPSP synthase coding sequence of petunia (with the coding sequence for the chloroplast transmit peptide) adjacent to the CaMV35S promoter. This plasmid was designated pMON567. Plasmid pMON567 was inserted into A. tumefaciens cells that contained helper plasmid pGV3111-SE.
A culture of A. tumefaciens cells containing pMON567/pGV3111-SE was contacted with leaf disks taken from tobacco plants (Nicotiana tobacam CV H425) as described by Horsch (1985). The Agrobacterium cells inserted the variant EPSP synthase gene into the chromosomes of the plant cells. Plant cells resistant to kanamycin were selected and regenerated into differentiated plants by the procedure of Horsch (1985).
Progeny of these plants were propagated and grown to a rosette diameter of about 10 cm corresponding to a plant age of about four weeks. The plants were sprayed with glyphosate at levels corresponding to 0.4, 2.0 and 3.6 pounds acid equiv./acre. The effect of glyphosate on the transformed plants were scored at 7, 14 and 28 days. The effect was translated to a numerical scale of 0-10 in which 0 represents total kill and 10 is the normal, unsprayed plant. […] The values represent the best transformant for both wild-type EPSP synthase and glyphosate-tolerant EPSP synthase genes.

The target in experiment [3] is variant maize preenzyme product of pMON8617 (glycine to alanine and glycine to aspartate) (Zea mays, UniProt A0A1D6NVZ6, G163A/G206D). Description: EPSP synthase activity of in vitro translation product. Format: biochemical. How it is done: (§1) To an assay mix (40 μl) containing shikimate-3-phosphate (2 mM), ^14 C-phosphoenolpyruvate (1 mM, 1.2 mCi/mmol), ammonium molybdate (0.1 mM), potassium fluoride (5 mM) in 50 mM HEPES-KOH, pH 7, was added the extract and incubated at 25° C. for 2 mins. The reaction was quenched by the addition of 50 μl of 50 μl of 90% ethanol/0.1M acetic acid, pH 4.5. 70 μl of the reaction mixture was loaded on a SynchroPak AX100 HPLC column (0.4×25 cm) and the column was eluted with 0.5M potassium phosphate, pH 5.5 at 1 ml/min. The radioactivity of the eluent was monitored using a Radiomatic Flo-One Beta Instrument. (Radiomatics, Fla.). The EPSP synthase activity was determined by measurement of the conversion of ^14 C-PEP to ^14 C-EPSP synthase, both of which are resolved under the above conditions of chromatography. The protein content of the extract was determined by the method of Bradford (Biorad Labs, Calif.). The specific activity of the extract is expressed as nanomoles of EPSP synthase formed/min/mg protein.
(§2) The linearized plasmid DNA was transcribed in vitro with T7 polymerase essentially as described by Krieg et al. (1984). The standard reaction buffer contained 40 mM Tris-HCl (pH 7.9), 6 mM MgCl2, 10 mM dithiothreitol, 2 mM spermidine, 80 U RNAsin ribuonuclease inhibitor, 0.5 mM each of ATP, GTP, CTP and UTP, in a final reaction volume of 100 μl. The final RNA pellet was resuspended in 20 μl of sterile water and stored at -80° C. A standard translation reaction contained 100 μl of nuclease-treated rabbit reticulocyte lysate, 5.7 μl of a 19-amino acid mixture (minus methionine) at 1 mM each, 5.7 μl of RNA (total RNA transcripts derived from 0.63 μg of plasmid DNA), 16 μl RNAsin (20U/μl) ribonuclease inhibitor, and 58.3 μl of [^35 S] methionine (14-15 mCi/ml). The in vitro translation products were stored frozen at -80° C.
(§3) The products of the in vitro translation were then assayed for EPSP synthase activity as described herein.

Experiment [4] addresses wild type maize pre-EPSP synthase (pMON9951 product) (Zea mays, UniProt A0A1D6NVZ6). Described as above. Format: biochemical. Particulars: 1.0 mM glyphosate. Here is the method:
as §1, §2, §3

The values below come from patent publication US5310667A (priority 1989, dated 1994).

Chain of variant maize preenzyme product of pMON8617 (glycine to alanine and glycine to aspartate) (A0A1D6NVZ6 entry or part of it G163A/G206D): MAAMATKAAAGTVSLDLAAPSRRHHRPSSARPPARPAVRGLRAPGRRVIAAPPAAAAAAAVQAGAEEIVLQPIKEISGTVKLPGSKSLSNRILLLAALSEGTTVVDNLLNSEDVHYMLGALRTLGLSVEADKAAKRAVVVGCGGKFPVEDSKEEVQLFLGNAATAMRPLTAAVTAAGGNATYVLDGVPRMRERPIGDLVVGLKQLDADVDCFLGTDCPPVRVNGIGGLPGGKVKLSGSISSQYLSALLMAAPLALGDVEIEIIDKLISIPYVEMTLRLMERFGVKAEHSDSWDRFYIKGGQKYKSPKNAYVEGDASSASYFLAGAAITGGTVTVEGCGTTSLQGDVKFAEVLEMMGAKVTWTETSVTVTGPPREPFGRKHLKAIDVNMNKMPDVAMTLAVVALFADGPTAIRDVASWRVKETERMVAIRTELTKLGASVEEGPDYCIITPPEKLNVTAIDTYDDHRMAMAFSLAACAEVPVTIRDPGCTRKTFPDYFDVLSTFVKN
T1 sequence (P11043 73-516 G173A/G216D): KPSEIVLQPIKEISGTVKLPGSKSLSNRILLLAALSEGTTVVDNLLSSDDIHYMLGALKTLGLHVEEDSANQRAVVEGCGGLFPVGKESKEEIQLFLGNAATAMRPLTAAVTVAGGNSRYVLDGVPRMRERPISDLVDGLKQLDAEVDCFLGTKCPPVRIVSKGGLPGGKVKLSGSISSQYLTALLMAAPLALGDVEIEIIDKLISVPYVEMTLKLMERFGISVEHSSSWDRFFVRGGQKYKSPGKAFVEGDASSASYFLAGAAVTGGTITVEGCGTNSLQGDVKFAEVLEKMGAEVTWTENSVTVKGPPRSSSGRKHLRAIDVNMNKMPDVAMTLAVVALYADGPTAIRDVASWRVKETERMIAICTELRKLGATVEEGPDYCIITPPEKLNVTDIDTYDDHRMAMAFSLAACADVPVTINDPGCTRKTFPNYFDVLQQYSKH
Chain of wild type maize pre-EPSP synthase (pMON9951 product) (A0A1D6NVZ6 1-506): as the sequence (A0A1D6NVZ6 entry or part of it G163A/G206D) above, with A163G, D206G counted along it

`O=C(O)CNCP(=O)(O)O` [glyphosate, N-phosphonomethylglycine]: in experiment [1], the Ki for glyphosate came out at 348 µM. In addition, the Ki/Km ratio in experiment [1] (Ki glyphosate / Km PEP) turned out to be 7.7. Further, the “Relative Effect of Glyphosate” value came to 8.0 in experiment [2] (0.4 pounds/Acre, day 7); 8.0 in experiment [2] (0.4 pounds/Acre, day 14); 9.0 in experiment [2] (0.4 pounds/Acre, day 28); 8.0 in experiment [2] (2.0 pounds/Acre, day 7); 8.3 in experiment [2] (2.0 pounds/Acre, day 14); 7.0 in experiment [2] (2.0 pounds/Acre, day 28). The “Relative Effect of Glyphosate” value is reported as 5.0 in experiment [2] (3.6 pounds/Acre, day 7); 7.4 in experiment [2] (3.6 pounds/Acre, day 14); 7.0 in experiment [2] (3.6 pounds/Acre, day 28). The “inhibition of EPSP synthase activity” value was “only slight inhibition” in experiment [3] (1 mM glyphosate) and “greater inhibition, but still showing detectable activity” in experiment [3] (100 mM glyphosate). Further, the “EPSP synthase activity in the presence of glyphosate” value in experiment [4] was “no activity was detected”.
